Test results as given in patent publication US6962909B2, “Treatment of neovascularization disorders with squalimine” (Genaera Corporation, priority 1995, dated 2005).
In brackets after ≈: the same amount, converted by molar mass.

What was measured:
[1] = tested on: L1210 lymphoblastic leukemia cells; test: Mouse model of L1210 leukemia
Description: C57B mice were inoculated with L1210 lymphoblastic leukemia cells at an inoculum that causes leukemia in 100% of animals. Mice received compound 1436 at 1, 5, 10 mg/kg every 3 days intraperitoneally.
Of particular interest is the hematological profile determined during the course of treatment. Animals were treated with cisplatin and compound 1436.

[2] = target: NHE2; conditions: cited from earlier work
[3] = target: NHE3 (Rattus norvegicus, UniProt P26433); conditions: cited from earlier work
[4] = MTT (Table II); type: cell-based
From the text: As set forth in Table II, which follows Table I, the activities of natural and synthetic aminosterols in the different assays vary. In light of the foregoing, it is now possible to screen for steroids with or without squalamine-like pharmacological activity.

[5] = tested on: C. albicans; test: Antibiotic activity, MIC; conditions: Candida albicans
[6] = tested on: S. aureus; test: Antibiotic activity, MIC; type: cell-based; conditions: Staphylococcus aureus
[7] = tested on: P. aerug; test: Antibiotic activity, MIC
[8] = tested on: E. coli; test: Antibiotic activity, MIC; type: cell-based; conditions: Escherichia coli
[9] = target: NHE1 (Homo sapiens, UniProt P19634); conditions: cited from earlier work
Sequence of NHE1 (P19634 whole entry, species assumed): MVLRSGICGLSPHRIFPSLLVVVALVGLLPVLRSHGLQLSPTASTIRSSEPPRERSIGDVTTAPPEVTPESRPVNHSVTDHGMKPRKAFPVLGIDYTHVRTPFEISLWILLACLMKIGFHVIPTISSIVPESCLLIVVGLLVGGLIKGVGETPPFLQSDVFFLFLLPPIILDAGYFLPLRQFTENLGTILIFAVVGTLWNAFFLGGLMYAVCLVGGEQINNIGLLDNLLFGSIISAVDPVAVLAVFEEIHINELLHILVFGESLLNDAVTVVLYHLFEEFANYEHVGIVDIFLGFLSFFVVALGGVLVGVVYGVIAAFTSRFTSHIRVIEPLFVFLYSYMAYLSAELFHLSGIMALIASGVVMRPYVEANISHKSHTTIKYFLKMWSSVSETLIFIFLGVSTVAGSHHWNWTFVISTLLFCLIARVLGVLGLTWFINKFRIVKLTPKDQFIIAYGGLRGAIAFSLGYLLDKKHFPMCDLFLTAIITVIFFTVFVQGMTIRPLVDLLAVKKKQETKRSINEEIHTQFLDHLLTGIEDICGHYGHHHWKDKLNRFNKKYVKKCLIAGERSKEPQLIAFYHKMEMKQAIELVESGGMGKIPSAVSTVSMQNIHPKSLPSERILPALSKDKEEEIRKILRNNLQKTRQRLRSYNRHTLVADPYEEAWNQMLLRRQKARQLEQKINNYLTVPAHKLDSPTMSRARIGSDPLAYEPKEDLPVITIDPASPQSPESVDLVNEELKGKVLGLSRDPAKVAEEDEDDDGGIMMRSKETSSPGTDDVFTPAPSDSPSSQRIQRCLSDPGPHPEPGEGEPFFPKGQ

[10] = tested on: Stage 59-60 Xenopus tadpoles; test: Xenopus tadpole assay; type: in vivo, Xenopus laevis; conditions: 10 μg/ml in water, about 1 hour
From the text: A newly developed assay employing tadpoles, preferably Xenopus laevis Stages 59-60, were employed to study the effect of a compound by monitoring capillary occlusion in the tadpole's tail. […] The compounds of the invention affect the shape, viability and integrity of the embryonic tissues while not affecting the adult tissues, providing a powerful, highly specific screen. For example, substances that destroy all of the animal's epithelium, both adult and embryonic, could be regarded as toxic.
In this assay, tadpoles are introduced into Petri dishes containing a solution of the test compound in distilled water, preferably about 100 ml. The preferred concentration of the test compound is from about 1 μg/ml to about 10 μg/ml. The volume of liquid is sufficient for the animal to swim freely and drink from the solution. Thus, the effect observed results from oral absorption and subsequent systemic distribution of the agent. If the volume of liquid is not sufficient to permit oral intake, the effects that are observed would result from absorption through the surface epithelium. Thus, this simple assay can identify if an compound has characteristics of oral availability.
After an amount of time, typically about 60 minutes, the occlusion of blood flow through capillaries in the tadpole's tail are observed under an inverted microscope at a magnification of roughly 100×.
The tadpole assay described above provides an advantageous way to determine the pharmacological targets of each steroid when introduced into a mammal, and to determine pharmacological categories into which synthetic compounds belong. In the assay, each of the steroids was dissolved in 100 ml of distilled water at a concentration of 10 μg/ml. Stage 59-60 Xenopus tadpoles were introduced and evaluated by light microscopy and gross observation 1 hour later.

[11] = tested on: vitelline capillaries of 3- to 5-day chick embryo; test: Chick embryo vitelline capillary regression assay; type: in vivo; design: key to Vascular reactivity (capillary regression): + = Vascular reactivity; 0 = No vascular reactivity; +/− = Equivocal reactivity
Description: Using the chick embryo vitelline capillaries assay, compounds were tested for their ability to induce capillary regression. Each compound was applied in 0.1 ml of 15% Ficol 400 and PBS onto the embryo, and vascular regression was assessed after 60 minutes.
The 3-day chick embryo consists of an embryonic disc from which numerous vessels emerge and return, forming a “figure 8”-shaped structure—the embryo in the center with vascular loops extending outward over both poles. […] Following a lag period of around 15 minutes, the constriction of continuity between capillary and secondary vessels, generally on the “venous” side, was observed. Continued pulsatile blood flow progressed, resulting in a “swelling” of the blind tube, followed by a pinching off of the remaining connection and formation of an enclosed vascular sac resembling a “blood island.” This process progressed until only the largest vessels remained intact.

[12] = tested on: PHA-stimulated human lymphocytes; test: Inhibition of mitogen-stimulated growth of human T-cells; type: cell-based; conditions: 72 hours
Description: Human heparinized blood, freshly collected, was introduced into tissue culture flasks containing 10 μg/ml phytohaemagglutinin (PHA) in RPMI medium with 10% FCS. Various purified steroids were introduced subsequently at concentrations of 1, 5, and 10 μg/ml. Cultures were incubated for 72 hours, after which time colcemid was added to 1 μg/ml. Cultures were maintained for an additional 2 hours, and cells collected. Mitotic figures were estimated using standard cytochemical techniques, following Giemsa staining.

[13] = mice with 5 × 10^5 L1210 cells ip, cisplatin 8 mg/kg ip, compound 1436 10 mg/kg ip q4d

Sequence of NHE3 (P26433 29-831): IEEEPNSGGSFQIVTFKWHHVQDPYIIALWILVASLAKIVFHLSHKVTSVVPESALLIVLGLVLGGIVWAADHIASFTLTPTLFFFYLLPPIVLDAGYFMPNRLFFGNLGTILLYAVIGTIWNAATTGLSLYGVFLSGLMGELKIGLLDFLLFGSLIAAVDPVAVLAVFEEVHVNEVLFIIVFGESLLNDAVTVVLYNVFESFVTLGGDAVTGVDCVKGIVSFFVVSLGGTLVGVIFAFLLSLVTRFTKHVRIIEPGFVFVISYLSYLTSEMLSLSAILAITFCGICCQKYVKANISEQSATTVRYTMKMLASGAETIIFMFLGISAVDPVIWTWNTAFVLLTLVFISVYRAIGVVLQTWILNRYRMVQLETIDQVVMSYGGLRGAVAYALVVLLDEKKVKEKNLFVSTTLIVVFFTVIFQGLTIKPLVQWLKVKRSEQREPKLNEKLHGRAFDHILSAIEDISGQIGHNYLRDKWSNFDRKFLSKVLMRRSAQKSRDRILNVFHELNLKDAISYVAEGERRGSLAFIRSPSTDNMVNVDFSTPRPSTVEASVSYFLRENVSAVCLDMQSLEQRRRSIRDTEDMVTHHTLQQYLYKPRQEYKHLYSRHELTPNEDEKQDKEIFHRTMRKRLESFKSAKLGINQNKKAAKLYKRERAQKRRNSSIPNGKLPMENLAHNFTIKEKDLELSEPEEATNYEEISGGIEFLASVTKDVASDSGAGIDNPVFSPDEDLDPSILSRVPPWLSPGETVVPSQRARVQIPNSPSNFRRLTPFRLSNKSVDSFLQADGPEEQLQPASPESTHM

| Molecule | MIC [5] [µg/mL] | MIC [6] [µg/mL] | MIC [7] [µg/mL] | MIC [8] [µg/mL] | other results |
| --- | --- | --- | --- | --- | --- |
| N.N.[Cl][Pt][Cl] [Cisplatin, reference compound] | – | – | – | – | Hematological profile during treatment ([1]; by day 28): developed a profound anemia by day 28; RBC, Early Time [1, 13]: 9.4 10^6/mm^3; RBC, Late Time [1, 13]: 1.5 10^6/mm^3; WBC, Early Time [1, 13]: 8.1 10^3/mm^3; WBC, Late Time [1, 13]: 18.1 10^3/mm^3 |
| N=C(N)NC(=O)c1nc(Cl)c(N)nc1N [Amiloride] | – | – | – | – | Ki [2]: 3 µM; Ki [3]: 100 µM |
| CC(CC[C@@H](OS(=O)(=O)O)C(C)C)[C@H]1CCC2C3C(CC[C@@]21C)[C@@]1(C)CC[C@H](NCCCNCCCCN)C[C@@H]1C[C@H]3O (stereo partly drawn) [drawing 164] | – | – | – | – | MTT [4]: 32 µg/mL |
| CC(C)CCCC(C)[C@H]1CCC2C3CC[C@H]4C[C@H](NCCCCN)CC[C@]4(C)C3CC[C@@]21C (stereo partly drawn) | 64 (≈ 139 µM) | 4 (≈ 8.72 µM) | > 256 | > 256 | – |
| CC(C)CCCC(C)[C@H]1CCC2C3CC[C@H]4C[C@@H](NCCCCN)CC[C@]4(C)C3CC[C@@]21C (stereo partly drawn) | > 256 | 16 (≈ 34.9 µM) | > 256 | > 256 | – |
| CC(C)C(O)CCC(C)[C@H]1CCC2C3C(CC[C@@]21C)[C@@]1(C)CC[C@H](NCCCNCCCCN)C[C@@H]1C[C@H]3O (stereo partly drawn) | 64 (≈ 117 µM) | 4 to 16 (≈ 7.3 to 29.2 µM) | 128 (≈ 234 µM) | 32 (≈ 58.4 µM) | – |
| CC(C)CCCC(C)[C@H]1CCC2C3CC[C@H]4C[C@@H](NCCCNCCCCNCCCN)CC[C@]4(C)C3CC[C@@]21C (stereo partly drawn) [drawing 47] | 32 (≈ 55.8 µM) | 16 (≈ 27.9 µM) | 64 (≈ 112 µM) | 128 (≈ 223 µM) | – |
| COC(O)CCC(C)[C@H]1CCC2C3C(CC[C@@]21C)[C@@]1(C)CC[C@H](NCCCNCCCCNCCCN)C[C@@H]1C[C@H]3O (stereo partly drawn) | 16 (≈ 27 µM) | 2 to 4 (≈ 3.37 to 6.75 µM) | 128 (≈ 216 µM) | 64 (≈ 108 µM) | – |
| CC(CC[C@@H](OS(=O)(=O)O)C(C)C)[C@H]1CCC2C3C(CC[C@@]21C)[C@@]1(C)CC[C@H](NCCCNCCCCN)C[C@@H]1C[C@H]3O (stereo partly drawn) [drawing 43] | 8 (≈ 12.7 µM) | 0.5 to 1 (≈ 0.796 to 1.59 µM) | 16 (≈ 25.5 µM) | 2 to 4 (≈ 3.18 to 6.37 µM) | – |
| COC(=O)CCC(C)[C@H]1CCC2C3C(CC[C@@]21C)[C@@]1(C)CC[C@H](NCCCNCCCCN)C[C@@H]1C[C@H]3O (stereo partly drawn) | 32 (≈ 59.9 µM) | 4 to 8 (≈ 7.49 to 15 µM) | 64 (≈ 120 µM) | 32 (≈ 59.9 µM) | – |
| CC(CCC(=O)O)[C@H]1CCC2C3CC[C@H]4C[C@@H](NCCCNCCCCN)CC[C@]4(C)C3CC[C@@]21C (stereo partly drawn) | 8 (≈ 15.9 µM) | 64 (≈ 127 µM) | 32 (≈ 63.5 µM) | 32 to 64 (≈ 63.5 to 127 µM) | – |
| C[C@@H](O)C1CCC2C3CC[C@H]4C[C@H](NCCCNCCCCN)CC[C@]4(C)C3CC[C@@]21C (stereo partly drawn) | 128 (≈ 286 µM) | 16 (≈ 35.7 µM) | 128 (≈ 286 µM) | 64 (≈ 143 µM) | – |
| CC(C)C(O)CCC(C)[C@H]1CCC2C3C(CC[C@@]21C)[C@@]1(C)CC[C@@H](NCCCNCCCCN)C[C@@H]1C[C@H]3O (stereo partly drawn) | 64 (≈ 117 µM) | 16 to 32 (≈ 29.2 to 58.4 µM) | 256 (≈ 467 µM) | 128 (≈ 234 µM) | – |
| CS(=O)(=O)c1cc(C(=O)NC(=N)N)ccc1N1CCCCC1 [(3-methylsulfonyl-4-piperidinobenzoyl) guanidine methanesulfonate] | – | – | – | – | Ki [9]: 0.16 µM; Ki [2]: 5 µM; Ki [3]: 650 µM |
| CC(COS(=O)(=O)O)C(=O)CCC(C)[C@H]1CCC2C3C(CC[C@@]21C)[C@@]1(C)CC[C@H](NCCCNCCCCN)C[C@@H]1C[C@H]3O (stereo partly drawn) [Compound 1360] | – | – | – | – | Pharmacological response observed in tadpole [10]: Swelling and lysis of certain erythrocytes occurred, resulting in accumulation of nuclei within certain small vessels of the tail; Pharmacological response observed in tadpole ([10]; listed as compound 1360): extensive vasocclusion occurred within 60 minutes throughout the tail; Vascular reactivity (capillary regression) ([11]; 1 μg applied, 60 minutes): 0; Effect on blood circulating through the embryonic vessels ([11]; within 20 minutes of application): exhibited a brighter red color; Inhibition of PHA-stimulated human lymphocytes ([12]; 1 μg/ml): 5 % control; Inhibition of PHA-stimulated human lymphocytes ([12]; 5 μg/ml): 5 % control; Inhibition of PHA-stimulated human lymphocytes ([12]; 10 μg/ml): 5 % control |
| dimethylamiloride [DMA] | – | – | – | – | Ki [9]: 0.1 µM; Ki [2]: 0.7 µM; Ki [3]: 11 µM |
| CC(C)CCCC(C)[C@H]1CCC2C3CC[C@H]4C[C@@H](NCCCNCCCCN)CC[C@]4(C)C3CC[C@@]21C (stereo partly drawn) | 256 (≈ 496 µM) | 8 (≈ 15.5 µM) | 128 (≈ 248 µM) | 128 to 256 (≈ 248 to 496 µM) | – |
| CC(C)C(O)CCC(C)[C@H]1CCC2C3C(CC[C@@]21C)[C@@]1(C)CC[C@H](NCCCNCCCCN(C)C)C[C@@H]1C[C@H]3O (stereo partly drawn) | 64 (≈ 111 µM) | 8 to 16 (≈ 13.9 to 27.8 µM) | 128 (≈ 222 µM) | 64 (≈ 111 µM) | – |
| CC(COS(=O)(=O)O)C(=O)CCC(C)[C@H]1CCC2C3C(CC[C@@]21C)[C@@]1(C)CC[C@H](NCCCNCCCCN)C[C@@H]1C[C@H]3O (stereo partly drawn) [drawing 63] | 32 (≈ 49.8 µM) | 8 (≈ 12.5 µM) | 128 (≈ 199 µM) | 128 (≈ 199 µM) | – |
| COC(=O)CCC(C)[C@H]1CCC2C3C(CC[C@@]21C)[C@@]1(C)CC[C@@H](NCCCNCCCCN)C[C@@H]1C[C@H]3O (stereo partly drawn) | 32 (≈ 59.9 µM) | 4 (≈ 7.49 µM) | 64 (≈ 120 µM) | 64 (≈ 120 µM) | – |
| CC(CCC(=O)O)[C@H]1CCC2C3C(CC[C@@]21C)[C@@]1(C)CC[C@H](NCCCNCCCCN)C[C@@H]1C[C@H]3O (stereo partly drawn) | 128 (≈ 246 µM) | 32 (≈ 61.6 µM) | 32 (≈ 61.6 µM) | 64 (≈ 123 µM) | – |
| C[C@@H](O)C1CCC2C3CC[C@H]4C[C@@H](NCCCNCCCCN)CC[C@]4(C)C3CC[C@@]21C (stereo partly drawn) | 64 (≈ 143 µM) | 4 (≈ 8.93 µM) | 256 (≈ 572 µM) | 32 to 64 (≈ 71.5 to 143 µM) | – |
| CC(CC[C@@H](OS(=O)(=O)O)C(C)C)[C@H]1CCC2C3C(CC[C@@]21C)[C@@]1(C)CC[C@H](NCCCNCCCCNCCCN)C[C@@H]1C[C@H]3O (stereo partly drawn) [drawing 170] | – | – | – | – | MTT [4]: 67 µg/mL |
| CC(CCC(=O)O)[C@H]1CCC2C3C(CC[C@@]21C)[C@@]1(C)CC[C@@H](NCCCNCCCCN)C[C@@H]1C[C@H]3O (stereo partly drawn) | 32 (≈ 61.6 µM) | 16 (≈ 30.8 µM) | 32 (≈ 61.6 µM) | 64 (≈ 123 µM) | – |
| COC(=O)CCC(C)[C@H]1CCC2C3C(CC[C@@]21C)[C@@]1(C)CCC(NCCCNCCCCNCCCN)C[C@@H]1C[C@H]3O (stereo partly drawn) | 64 (≈ 108 µM) | 4 (≈ 6.77 µM) | 64 (≈ 108 µM) | 32 (≈ 54.2 µM) | – |
| CC(C)CCCC(C)[C@H]1CCC2C3CC[C@H]4C[C@H](NCCCNCCCCN)CC[C@]4(C)C3CC[C@@]21C (stereo partly drawn) | 128 (≈ 248 µM) | 2 to 4 (≈ 3.88 to 7.75 µM) | 128 (≈ 248 µM) | 128 (≈ 248 µM) | – |
| CCCN(C)c1nc(N)c(C(=O)N=C(N)N)nc1Cl [MPA, methylpropylamiloride] | – | – | – | – | Ki [9]: 0.08 µM; Ki [2]: 5 µM; Ki [3]: 10 µM |
| CC(C)CCCC(C)[C@H]1CCC2C3CC[C@H]4C[C@H](NCCCNCCCCNCCCN)CC[C@]4(C)C3CC[C@@]21C (stereo partly drawn) | 16 to 32 (≈ 27.9 to 55.8 µM) | 8 (≈ 14 µM) | 64 (≈ 112 µM) | 64 to 128 (≈ 112 to 223 µM) | – |
